This is an account of results in patent US20230146675A1, “PYRIMIDO[5,4-d]PYRIMIDINE DERIVATIVES AS ENT INHIBITORS FOR THE TREATMENT OF CANCERS, AND COMBINATION THEREOF WITH ADENOSINE RECEPTOR ANTAGONISTS” (ITEOS BELGIUM SA, priority 2020, published 2023).

SMILES strings stand for the structures. Bounds are passed on as bounds.

The assay concerns the target T1, human ENT1 (Homo sapiens, UniProt Q99808).
T1 sequence (Q99808 1-456): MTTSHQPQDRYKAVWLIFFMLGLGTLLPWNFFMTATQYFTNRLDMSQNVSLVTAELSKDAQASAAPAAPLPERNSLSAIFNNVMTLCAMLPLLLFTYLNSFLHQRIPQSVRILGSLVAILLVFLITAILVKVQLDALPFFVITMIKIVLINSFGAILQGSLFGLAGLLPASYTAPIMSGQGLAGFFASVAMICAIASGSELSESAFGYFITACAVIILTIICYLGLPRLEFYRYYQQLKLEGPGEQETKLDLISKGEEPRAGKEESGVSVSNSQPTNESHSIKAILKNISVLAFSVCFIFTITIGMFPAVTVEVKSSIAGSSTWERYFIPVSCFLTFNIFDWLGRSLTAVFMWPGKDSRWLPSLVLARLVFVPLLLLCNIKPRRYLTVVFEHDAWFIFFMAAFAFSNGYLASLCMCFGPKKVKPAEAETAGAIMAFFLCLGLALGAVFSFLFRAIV
Briefly: ENT1 binding assay (competition with Sahenta-DY647 on JAR cells). Further details: JAR cells expressing ENT1 were bought from ATCC; host or cells: JAR cells. Particulars: binned IC50. The method, boiled down:
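JAR cells were incubated with test compounds and the fluorescent ligand Sahenta-DY647 in competition. Plates were washed twice by centrifugation (4 min, 400 rcf, 4 °C). Binding potency was derived from the final fluorescence.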
The molecule `COCCN(CCOC)c1nc(N2CCN(c3cnccn3)CC2)c2nc(N(CCOC)CCOC)nc(N3CCC(OC)CC3)c2n1` [Compound 120, N2,N2,N6,N6-tetrakis(2-methoxyethyl)-4-(4-methoxypiperidin-1-yl)-8-(4-(pyrazin-2-yl)piperazin-1-yl)pyrimido[5,4-d]pyrimidine-2,6-diamine] gave an IC50 of 500 to 1000 nM. For the molecule `COCCN(CCOC)c1nc(N2CCC(C(N)=O)CC2)c2nc(N(CCOC)CCOC)nc(N3CCC(OC)CC3)c2n1` [Compound 75, 1-(2,6-bis(bis(2-methoxyethyl)amino)-8-(4-methoxypiperidin-1-yl)pyrimido[5,4-d]pyrimidin-4-yl)piperidine-4-carboxamide], the half-maximal inhibitory concentration (IC50) is 100 to 500 nM. To `COCCN(CCOC)c1nc(N2CCn3cncc3C2)c2nc(N(CCOC)CCOC)nc(N3CCC(OC)CC3)c2n1` [Compound 114, 4-(5,6-dihydroimidazo[1,5-a]pyrazin-7(8H)-yl)-N2,N2,N6,N6-tetrakis(2-methoxyethyl)-8-(4-methoxypiperidin-1-yl)pyrimido[5,4-d]pyrimidine-2,6-diamine] belongs less than 100 nM; to `COCCN(CCOC)c1nc(N2CCC(OC)CC2)c2nc(N(CCOC)CCOC)nc(OCc3cccc(C#N)c3)c2n1` [Compound 156, 3-(((2,6-bis(bis(2-methoxyethyl)amino)-8-(4-methoxypiperidin-1-yl)pyrimido[5,4-d]pyrimidin-4-yl)oxy)methyl)benzonitrile], 100 to 500 nM; to `COCCN(CCOC)c1nc(N2CCN(C)C(=O)C2)c2nc(N(CCOC)CCOC)nc(NCc3cccc(C(N)=O)c3)c2n1` [Compound 203, 3-(((2,6-bis(bis(2-methoxyethyl)amino)-8-(4-methyl-3-oxopiperazin-1-yl)pyrimido[5,4-d]pyrimidin-4-yl)amino)methyl)benzamide], 100 to 500 nM. The same measure for `COC1CCN(c2nc(N(CCO)CCO)nc3c(N4CCN(C)C(=O)C4)nc(N(CCO)CCO)nc23)CC1` [Compound 321, 4-(2,6-bis(bis(2-hydroxyethyl)amino)-8-(4-methoxypiperidin-1-yl)pyrimido[5,4-d]pyrimidin-4-yl)-1-methylpiperazin-2-one]: 500 to 1000 nM; for `COCCN(CCOC)c1nc(N2CCC(OC)CC2)c2nc(N(CCOC)CCOC)nc(NCc3cnn(C(C)C)c3)c2n1` [Compound 163, N4-((1-isopropyl-1H-pyrazol-4-yl)methyl)-N2,N2,N6,N6-tetrakis(2-methoxyethyl)-8-(4-methoxypiperidin-1-yl)pyrimido[5,4-d]pyrimidine-2,4,6-triamine]: 100 to 500 nM. To `COCCN(CCOC)c1nc(N2CCc3oc(C)nc3C2)c2nc(N(CCOC)CCOC)nc(N3CCN(C)C(=O)C3)c2n1` [Compound 256, 4-(2,6-bis(bis(2-methoxyethyl)amino)-8-(2-methyl-6,7-dihydrooxazolo[4,5-c]pyridin-5(4H)-yl)pyrimido[5,4-d]pyrimidin-4-yl)-1-methylpiperazin-2-one] belongs less than 100 nM; to `COCCN(CCOC)c1nc(N2CCC(OC)CC2)c2nc(N(CCOC)CCOC)nc(N(C)Cc3ccccn3)c2n1` [Compound 73, N2,N2,N6,N6-tetrakis(2-methoxyethyl)-8-(4-methoxypiperidin-1-yl)-N4-methyl-N4-(pyridin-2-ylmethyl)pyrimido[5,4-d]pyrimidine-2,4,6-triamine], 100 to 500 nM; to `COCCN(CCOC)c1nc(N2CCN(C)C(=O)C2)c2nc(N(CCOC)CCOC)nc(NCc3ccc(F)c(C#N)c3)c2n1` [Compound 211, 5-(((2,6-bis(bis(2-methoxyethyl)amino)-8-(4-methyl-3-oxopiperazin-1-yl)pyrimido[5,4-d]pyrimidin-4-yl)amino)methyl)-2-fluorobenzonitrile], less than 100 nM. The molecule `COCCN(CCOC)c1nc(N2CCN(C)C(=O)C2)c2nc(N(CCOC)CCOC)nc(N(C)Cc3ccc(F)c(F)c3)c2n1` [Compound 239, 4-(2,6-bis(bis(2-methoxyethyl)amino)-8-((3,4-difluorobenzyl)(methyl)amino)pyrimido[5,4-d]pyrimidin-4-yl)-1-methylpiperazin-2-one] showed a concentration for half-maximal inhibition (IC50) of less than 100 nM. The same measure for `COCCN(CCOC)c1nc(N2CCN(c3ncn(C)n3)CC2)c2nc(N(CCOC)CCOC)nc(N(C)Cc3cccc(C#N)c3)c2n1` [Compound 244, 3-(((2,6-bis(bis(2-methoxyethyl)amino)-8-(4-(1-methyl-1H-1,2,4-triazol-3-yl)piperazin-1-yl)pyrimido[5,4-d]pyrimidin-4-yl)(methyl)amino)methyl)benzonitrile]: 100 to 500 nM; for `COCCN(CCOC)c1nc(N2CCN(C)C(=O)C2)c2nc(N(CCOC)CCOC)nc(N3CCS(=O)(=O)CC3)c2n1` [Compound 188, 4-(2,6-bis(bis(2-methoxyethyl)amino)-8-(1,1-dioxidothiomorpholino)pyrimido[5,4-d]pyrimidin-4-yl)-1-methylpiperazin-2-one]: 100 to 500 nM; for `COCCN(Cc1ccc(C(=O)O)c(F)c1)c1nc(N2CCN(C)C(=O)C2)c2nc(N(CCOC)CCOC)nc(N3CCC(OC)CC3)c2n1` [Compound 336, 4-(((6-(bis(2-methoxyethyl)amino)-8-(4-methoxypiperidin-1-yl)-4-(4-methyl-3-oxopiperazin-1-yl)pyrimido[5,4-d]pyrimidin-2-yl)(2-methoxyethyl)amino)methyl)-2-fluorobenzoic acid]: less than 100 nM. The molecule `COCCNc1nc(N(CCOC)CCOC)nc2c(N3CCC(OC)CC3)nc(N(CCOC)CCOC)nc12` [Compound 128, N2,N2,N4,N6,N6-pentakis(2-methoxyethyl)-8-(4-methoxypiperidin-1-yl)pyrimido[5,4-d]pyrimidine-2,4,6-triamine] showed a half-inhibitory concentration (IC50) of 500 to 1000 nM. The same measure for `COCCN(CCOC)c1nc(N2CCN(c3nccc(C)n3)CC2)c2nc(N(CCOC)CCOC)nc(N3CCC(OC)CC3)c2n1` [Compound 122, N2,N2,N6,N6-tetrakis(2-methoxyethyl)-4-(4-methoxypiperidin-1-yl)-8-(4-(4-methylpyrimidin-2-yl)piperazin-1-yl)pyrimido[5,4-d]pyrimidine-2,6-diamine]: 100 to 500 nM; for `COCCN(CCOC)c1nc(N2CCC(OC)CC2)c2nc(N(CCOC)CCOC)nc(NCc3ccc(C#N)cc3)c2n1` [Compound 140, 4-(((2,6-bis(bis(2-methoxyethyl)amino)-8-(4-methoxypiperidin-1-yl)pyrimido[5,4-d]pyrimidin-4-yl)amino)methyl)benzonitrile]: 100 to 500 nM; for `COCCN(CCOC)c1nc(N2CCN(C(C)=O)CC2)c2nc(N(CCOC)CCOC)nc(N3CCC(OC)CC3)c2n1` [Compound 74, 1-(4-(2,6-bis(bis(2-methoxyethyl)amino)-8-(4-methoxypiperidin-1-yl)pyrimido[5,4-d]pyrimidin-4-yl)piperazin-1-yl)ethanone]: 100 to 500 nM.

`COCCN(CCOC)c1nc(N2CCN(C)C(=O)C2)c2nc(N(CCOC)CCOC)nc(NCc3cccc(F)c3)c2n1` [Compound 207, 4-(2,6-bis(bis(2-methoxyethyl)amino)-8-((3-fluorobenzyl)amino)pyrimido[5,4-d]pyrimidin-4-yl)-1-methylpiperazin-2-one] yielded a half-maximal inhibitory concentration (IC50) of less than 100 nM.

Regarding `COCCN(CCOC)c1nc(N2CCN(c3nnc(C)o3)CC2)c2nc(N(CCOC)CCOC)nc(N3CCN(c4nnc(C)o4)CC3)c2n1` [Compound 130, N2,N2,N6,N6-tetrakis(2-methoxyethyl)-4,8-bis(4-(5-methyl-1,3,4-oxadiazol-2-yl)piperazin-1-yl)pyrimido[5,4-d]pyrimidine-2,6-diamine], the IC50 was 500 to 1000 nM. To `COCCN(CCC(=O)NS(=O)(=O)N(C)C)c1nc(N2CCN(C)C(=O)C2)c2nc(N(CCOC)CCOC)nc(N3CCC(OC)CC3)c2n1` [Compound 334, 3-((6-(bis(2-methoxyethyl)amino)-8-(4-methoxypiperidin-1-yl)-4-(4-methyl-3-oxopiperazin-1-yl)pyrimido[5,4-d]pyrimidin-2-yl)(2-methoxyethyl)amino)-N-(N,N-dimethylsulfamoyl)propanamide] belongs 500 to 1000 nM; to `COCCN(CCOC)c1nc(N2CCN(C)C(=O)C2)c2nc(N(CCOC)CCOC)nc(N(C)Cc3cccc(OC(F)(F)F)c3)c2n1` [Compound 236, 4-(2,6-bis(bis(2-methoxyethyl)amino)-8-(methyl(3-(trifluoromethoxy)benzyl)amino)pyrimido[5,4-d]pyrimidin-4-yl)-1-methylpiperazin-2-one], less than 100 nM; to `COCCN(CCOC)c1nc(N2CCC(OC)CC2)c2nc(N(CCOC)CCOC)nc(NCC(C)C)c2n1` [Compound 127, N4-isobutyl-N2,N2,N6,N6-tetrakis(2-methoxyethyl)-8-(4-methoxypiperidin-1-yl)pyrimido[5,4-d]pyrimidine-2,4,6-triamine], 100 to 500 nM. The same measure for `COCCN(CCOC)c1nc(N2CCC(OC)CC2)c2nc(N(CCO)CCO)nc(N3CCN(C)C(=O)C3)c2n1` [Compound 270, 4-(2-(bis(2-hydroxyethyl)amino)-6-(bis(2-methoxyethyl)amino)-8-(4-methoxypiperidin-1-yl)pyrimido[5,4-d]pyrimidin-4-yl)-1-methylpiperazin-2-one]: 100 to 500 nM. The same measure for `COCCN(CCOC)c1nc(N2CCn3ccnc3C2)c2nc(N(CCOC)CCOC)nc(N3CCN(C)C(=O)C3)c2n1` [Compound 257, 4-(2,6-bis(bis(2-methoxyethyl)amino)-8-(5,6-dihydroimidazo[1,2-a]pyrazin-7(8H)-yl)pyrimido[5,4-d]pyrimidin-4-yl)-1-methylpiperazin-2-one]: less than 100 nM.

By IC50 is commonly meant the concentration at which inhibition is half-maximal. Low values mean higher potency, high ones lower potency.
